PMC6099102, “Effect of the Nature of Donor Atoms on the Thermodynamic, Kinetic and Relaxation Properties of Mn(II) Complexes Formed With Some Trisubstituted 12-Membered Macrocyclic Ligands” (Frontiers in Chemistry, 2018)
Where two headings read alike, the source gives them in different places. Marks after values point to notes of the source that are not given here.

What was measured:
[1] = Protonation constants of the ligands by pH-potentiometric titration; type: physicochemical; settings: for Σ log K2H: log K1H + log K2H
Procedure: (§1) The concentration of the ligand solutions was determined by pH-potentiometric titration in the presence and absence of an excess (5–10 fold) of MnCl2. For determining the protonation constants of the investigated ligands, pH-potentiometric titrations were made by means of 0.2 M standardized NaOH in 2 and 3 mM ligand solutions in the pH-range of 1.75–11.85. All equilibrium measurements were performed at a constant 0.15 M NaCl ionic strength at 25 °C. The protonation and the stability constants of the Mn(II) complexes were determined by pH-potentiometric titrations (DOTP, DO3A, PCTA, ODO3A, DO3P) while owing to the slow formation rates of Mn(II) complexes formed with amide type ligands, the stability constants of DOTAM, DOTMA, DO3AM^H, PC3AM^H, PC3AM^Gly, PC3AM^Pip complexes were determined by out-of-cell pH-potentiomertry in combination with ^1H relaxometry. The metal-to-ligand concentration ratio in the solutions was 1:1. For the calculation of protonation constants of the ligands and the log KMnL and log KMnLHi values of the complexes, mL–pH data pairs (50–180), obtained in the pH range of 1.75–11.85 or r1obs-pH data pairs (10–15 batch samples) obtained in the pH range of 2–4.5 were used (the samples were equilibrated for 4–7 days). The equilibrium constants characterizing the deprotonation that occurs at basic pH were determined from the data obtained via direct pH-potentiometric titrations performed on the pre-formed complexes.
(§2) The pH-potentiometric titrations were carried out with a Methrohm 888 Titrando titration workstation using a Metrohm-6.0233.100 combined electrode. The samples (6.00 mL) were thermostated at 25 °C. The samples were stirred and kept under inert gas (N2) to avoid the effect of CO2. KH-phthalate (pH = 4.005) and borax (pH = 9.177) buffers were used for the pH-calibration. The method proposed by Irving et al. was used for the calculation of H^+ concentrations from the measured pH values (Irving et al., [1967]). A 0.01 M HCl (I = 0.15 M set with NaCl) solution was titrated with standardized NaOH solution of known concentration (approx. 0.2 M). The correction factor obtained as difference of calculated pH and measured pH values was used to calculate the [H^+] in the samples. The ionic product of water was determined from the same titrations (HCl/NaOH) from the data collected in the pH range of 11.20–11.85.
The protonation and complexation equilibria of the macrocyclic ligands and their Mn(II) complexes have been studied by pH-potentiometric and relaxometric methods in the presence of 0.15 M NaCl whose ionic strength mimics the physiological conditions. The protonation constants of the ligands were evaluated by fitting the pH-V(mL) base data pairs collected in the pH-potentiometric titrations. The protonation equilibria of the ligands can be described by Equation (2). (a comparison of previously published log K^H data available in the Supplementary Material) together with the constants of H4DOTA, cis- and trans-H2DO2A derivatives given for comparison. (2) KiH=[HiL]/[Hi-1L][H^+],i=1,2,…

[2] = Stability and protonation constants and pMn of the Mn(II) complexes (pH-potentiometry and/or 1H relaxometry); type: physicochemical; settings: I = 0.15 M NaCl, 25 °C; for pMn: calculated at pH = 7.4, cM = cL = 10^−5 M; for log KML: stability constant of the Mn(II) complex; for log KMLH: protonation constant of the Mn(II) complex; for log KMHLH: second protonation constant of the Mn(II) complex; for log KMH2LH: third protonation constant of the Mn(II) complex; for log KMLOH: ternary hydroxido complex of Mn(II)
Procedure: as §1, §2
The relaxometric data were collected using a Bruker Minispec MQ20 NMR relaxometer. […] A datapoint plotted on figures represents an average of 5–6 T1 measurements (Figures S3–S9 in Supplementary Material). The data were fitted by using the molar r1p relaxivity value of the MnCl2 ([…] at 0.49 T and 25 °C). The equilibrium constants were calculated using the PSEQUAD program (Zékány and Nagypál, [1985]).
In order to gain information on the thermodynamic stability of the Mn(II) complexes, samples containing the metal and ligand in 1 to 1 molar ratio were studied by pH potentiometry or ^1H-relaxometry and in some cases by a combination of the two methods. The titration data were fitted by assuming the existence of [M(L)] and some protonated species ([M(HiL)]) at lower pH values. In some cases to fit the data obtained at higher pH, the formation of ternary hydroxido complexes ([M(L)(OH)]) were also included in the equilibrium model. The stability constants (KML) and the various protonation forms (KMHiL) of ML metal chelates are defined by Equations (3)–(5). However, a comparison of the stabilities of different complexes solely on the basic of their stability constants might be misleading because of the differences in ligand basicities. […] The pMn value accounts for the effect of proton competition (ligand basicity and complex protonation) on the stability constant essentially offering the same information as the conditional stability constant. Higher pMn values indicate a higher chelate stability at specified conditions. […]

[3] = I = 0.1 M KCl, cited from earlier work; for Σ log K2H: log K1H + log K2H
[4] = cited from earlier work; for pMn: pH = 7.4, cM = cL = 10^−5 M
[5] = Dissociation kinetics of the Mn(II) complexes (acid catalyzed dissociation, metal or ligand exchange reactions); type: physicochemical; settings: replacement of >NH in DO3A by etheric oxygen
Procedure: The dissociation reactions were followed by UV-vis spectrophotometry at 269 nm for the pyclen derivatives or at 300 nm for other complexes in the pH range of 3.6–5.0 for the exchange reactions with Cu(II) and up to pH = 6.0 when Zn(II) was used as a ligand scavenger. The acid catalyzed dissociation reactions were performed in the HCl concentration range of 0.05–1.0 M. The concentration of the complexes in the samples was 0.25 mM, while the concentration of the exchanging metal ion in the metal initiated transchelation reactions was 10–40 times higher to ensure pseudo-first-order conditions. Relaxometry was used to follow the transchelation reactions of [Mn(DOTAM)]^2+, [Mn(DO3AM^H)]^2+, [Mn(DO3A)]^−, [Mn(PCTA)]^− and [Mn(ODO3A)]^− with Cu(II)/Zn(II) ions in the pH range of 3.6–5.5 (Figures S17–S19 in Supplementary Material). The concentration of the complexes in these samples was set to 1.0–2.0 mM to achieve relatively large change during the dissociation reaction. […] The temperature was maintained at 25 °C and the ionic strength of the solutions was kept constant at 0.15 M with NaCl. N,N′-dimethyl- (DMP) and N-methyl-piperazine (NMP) buffers (log K2H = 4.18 and 4.90 at 25 °C and I = 0.15 M NaCl, respectively) were used at 0.05 M concentration to keep the pH constant. The pseudo-first-order rate constants (kobs) were calculated by fitting the absorbance or relaxivity-time data pairs to Equation (1) (1) Xt=(X0-Xe)e^-kobst+Xe where Xt, X0, and Xe are the absorbance or relaxivity at time t, at the start and at equilibrium, respectively. The calculations were performed with the computer program Micromath Scientist, version 2.0 (Salt Lake City, UT, USA) using a standard least-squares procedure.
The kinetic inertness of the Mn(II) complexes is the other important parameter for the complexes considered for use in vivo. The inertness of Mn(II) complexes formed with trisubstituted 12-memberd macrocyclic ligands were characterized either by studying the rates of acid catalyzed dissociation or by studying transmetallation reactions occurring between the complexes and a suitable exchanging metal ion such as Zn(II) or Cu(II). The demetallation reactions of labile complexes were performed at high pH by following the ligand exchange reactions with trans-CDTA and DTPA ligands. The demetallation reactions were studied in the presence of a large Cu(II)/Zn(II)/trans-CDTA/DTPA excess or by using high acid concentration in order to ensure pseudo-first-order conditions (Equation 6). Scheme 1 outlines all the possible dissociation pathways for the Mn(II) complexes. […] The reactions of the released Mn(II) and L ligand with the exchanging L' and M' reactants are assumed to be very rapid.
The rate of dissociation can be expressed by the Equation (6), where kobs is the pseudo-first-order rate constant and [Mn(L)]t is the total concentration of the species containing [Mn(L)] complex. The [Mn(L)]t will differ slightly depending on the experimental conditions (in the presence of a large metal or ligand excess). As [Mn(L)]t = [Mn(L)] + [Mn(HL)] + [Mn(H2L)] + [Mn(L)M] + [Mn(L)(L')] + [Mn(HL)(L')] for reactions performed at high pH (in the pH range of 3.0–5.0 often applied in Cu(II) exchange reactions) will involve fewer protonated species while the acid catalyzed dissociation reactions run in the strongly acidic media (0.1–1.0 M acid concentration range) predominantly contain protonated species ([Mn(L)]t = [Mn(L)]+[Mn(HL)]+[Mn(H2L)]). (6) -d[MnL]t/dt=kobs[MnL]t
By taking into account the various complex species and the possible reaction pathways as well as the protonation and stability constants of the reactive intermediates, the following equation (Equation 7) can be derived to describe the rates of dissociation. […]

[6] = buffer, 25 °C and I = 0.15 M NaCl
[7] = ligand protonation constant, I = 0.15 M NaCl, 25 °C
[8] = Mn(II) complex, 1H-relaxometry, ref Tircsó and Woods (in preparation)
[9] = Mn(II) complex, I = 0.1 M KCl, ref Forgács et al., [2016]

SMILES | log K1H [1, 7] | log K2H [1, 7] | Σ log K2H ([1]; I = 0.15 M NaCl, 25 °C) | pMn [2] | log KML [2] | log K3H [1, 7] | log K4H [1, 7] | log KMLH [2] | also measured
CN1CCN(C)CC1 [DMP, reference compound] |  |  |  |  |  |  |  |  | log K2H [1, 6]: 4.18
NC(=O)CN1CCNCCN(CC(N)=O)CCN(CC(N)=O)CC1 [DO3AM^H] | 9.40 (5) | 6.28 (8) | 15.68 | 7.32 | 11.69 (2) |  |  |  | 
CC(C(=O)O)N1CCN(C(C)C(=O)O)CCN(C(C)C(=O)O)CCN(C(C)C(=O)O)CC1 (centres unmarked) [DOTMA] |  |  |  |  |  |  |  |  | log K1H ([3]; ref Aime et al., [2011]): 11.72; log K2H ([3]; ref Aime et al., [2011]): 9.06; log K3H ([3]; ref Aime et al., [2011]): 4.74; log K4H ([3]; ref Aime et al., [2011]): 5.59; log K5H ([3]; ref Aime et al., [2011]): 1.92; Σ log K2H ([3]; ref Aime et al., [2011]): 20.78; log KML [4, 8]: 18.37^[a]; log KMLH [4, 8]: 4.56^[a]; pMn ([4]; ref Tircsó and Woods (in preparation)): 8.69
O=P(O)(O)CN1CCN(CP(=O)(O)O)CCN(CP(=O)(O)O)CCN(CP(=O)(O)O)CC1 [DOTP] |  | 12.23 (3) | 25.83 | 6.43 | 18.98 (1) | 8.63 (5) | 7.45 (4) | 8.09 (1) | log K1H ([1]; ligand protonation constant by 1H- and 31P-NMR, I = 0.15 M NaCl, 25 °C): 13.6 (2)^[a]; log K5H [1, 7]: 5.84 (5); log K6H [1, 7]: 5.02 (5); log KMHLH [2]: 7.79 (1); log KMH2LH [2]: 6.74 (1)
CN1CCNCC1 [NMP, N-methyl-piperazine, reference compound] |  |  |  |  |  |  |  |  | log K2H [1, 6]: 4.90
CN(C)C(=O)CN1CCN(CC(=O)N(C)C)CCN(Cc2ccccc2)CCN(Cc2ccccc2)CC1 [cis-Bz2DO2AM^Me2] |  |  |  |  |  |  |  |  | log K1H ([3]; ref Forgács et al., [2017]): 11.11; log K2H ([3]; ref Forgács et al., [2017]): 8.22; Σ log K2H ([3]; ref Forgács et al., [2017]): 19.33; log KML [4, 9]: 11.54; log KMLOH [4, 9]: 10.44; pMn ([4]; I = 0.1 M KCl, ref Forgács et al., [2016]): 6.00

More lines, main results first:

log K1H [1, 7] | log K2H [1, 7] | Σ log K2H ([1]; I = 0.15 M NaCl, 25 °C) | pMn [2] | log KML [2] | log K3H [1, 7] | log K4H [1, 7] | log KMLH [2] | SMILES | also measured
7.31 (1) | 6.07 (1) | 13.38 | 8.60 | 11.96 (1) |  |  |  | NC(=O)CN1CCN(CC(N)=O)CCN(CC(N)=O)CCN(CC(N)=O)CC1 [DOTAM] | 
8.74 (2) | 7.58 (2) | 16.32 | 8.57 | 13.88 (1) | 3.99 (3) | 2.39(3) | 2.77 (5) | O=C(O)CN1CCOCCN(CC(=O)O)CCN(CC(=O)O)CC1 [ODO3A] | increase in the k1 value of the Mn(II) complex relative to DO3A [5]: 50 fold
8.85 (1) | 4.55 (1) | 13.40 | 8.37 | 13.20 (1) | 3.81 (1) | 3.21 (1) | 3.98 (1) | O=C(O)CNC(=O)CN1CCN(CC(=O)NCC(=O)O)Cc2cccc(n2)CN(CC(=O)NCC(=O)O)CC1 [PC3AM^Gly] | log K5H [1, 7]: 2.80 (1); log K6H [1, 7]: 1.38 (1); log KMHLH [2]: 3.14 (1); log KMLOH [2]: 10.67 (2); log KMH2LH [2]: 2.87 (1)
8.74 (1) | 5.77 (2) | 14.51 | 8.86 | 14.05 (2) | 1.42 (9) |  |  | O=C(CN1CCN(CC(=O)N2CCCCC2)Cc2cccc(n2)CN(CC(=O)N2CCCCC2)CC1)N1CCCCC1 [PC3AM^Pip] | log KMLOH [2]: 11.63 (2)
